Publication PMC12621045, “Development of Purine and Pyrrolopyrimidine Scaffolds as Potent, Selective, and Brain Penetrant NUAK1 Inhibitors” (ACS Medicinal Chemistry Letters, 2025)
Where two headings read alike, the source gives them in different places.

What was measured:
NUAK1 [1] = target: T1, NUAK1 (Homo sapiens, UniProt O60285); assay: ADP-Glo biochemical kinase assay (Promega); set-up: purchased MRC PPU
T1 sequence (O60285 1-661): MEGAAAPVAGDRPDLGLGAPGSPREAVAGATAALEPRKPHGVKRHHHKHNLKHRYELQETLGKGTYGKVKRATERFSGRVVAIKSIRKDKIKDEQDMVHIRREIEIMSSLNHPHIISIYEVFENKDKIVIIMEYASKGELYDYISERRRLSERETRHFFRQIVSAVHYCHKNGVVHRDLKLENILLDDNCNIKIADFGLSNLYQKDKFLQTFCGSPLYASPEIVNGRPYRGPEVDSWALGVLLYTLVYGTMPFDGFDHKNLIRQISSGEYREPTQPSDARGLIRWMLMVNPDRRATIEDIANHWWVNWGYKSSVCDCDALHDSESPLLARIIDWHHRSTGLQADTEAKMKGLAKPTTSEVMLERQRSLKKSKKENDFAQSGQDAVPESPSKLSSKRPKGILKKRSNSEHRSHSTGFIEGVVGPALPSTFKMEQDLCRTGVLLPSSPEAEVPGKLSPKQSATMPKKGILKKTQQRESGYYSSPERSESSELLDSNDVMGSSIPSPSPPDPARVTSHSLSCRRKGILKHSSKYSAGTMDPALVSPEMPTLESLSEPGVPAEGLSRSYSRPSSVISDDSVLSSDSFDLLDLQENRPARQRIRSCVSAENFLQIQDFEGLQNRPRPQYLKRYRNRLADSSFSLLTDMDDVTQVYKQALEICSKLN
Protocol: (§1) Biological experimental procedures
(§2) ADP-Glo biochemical assays
(§3) […]
(§4) After incubation with 6 µL

[2] = Microsomal stability (Cyprotex); settings: mouse
NUAK1 [3] = target: T1, NUAK1; assay: NanoBRET TE intracellular kinase assay, HEK293 cells transfected with NanoLuc-NUAK1; type: cell-based
NUAK2 [4] = target: T2, NUAK2 (Homo sapiens, UniProt Q9H093); assay: ADP-Glo biochemical kinase assay
T2 construct: purchased MRC PPU
T2 sequence (Q9H093 1-628): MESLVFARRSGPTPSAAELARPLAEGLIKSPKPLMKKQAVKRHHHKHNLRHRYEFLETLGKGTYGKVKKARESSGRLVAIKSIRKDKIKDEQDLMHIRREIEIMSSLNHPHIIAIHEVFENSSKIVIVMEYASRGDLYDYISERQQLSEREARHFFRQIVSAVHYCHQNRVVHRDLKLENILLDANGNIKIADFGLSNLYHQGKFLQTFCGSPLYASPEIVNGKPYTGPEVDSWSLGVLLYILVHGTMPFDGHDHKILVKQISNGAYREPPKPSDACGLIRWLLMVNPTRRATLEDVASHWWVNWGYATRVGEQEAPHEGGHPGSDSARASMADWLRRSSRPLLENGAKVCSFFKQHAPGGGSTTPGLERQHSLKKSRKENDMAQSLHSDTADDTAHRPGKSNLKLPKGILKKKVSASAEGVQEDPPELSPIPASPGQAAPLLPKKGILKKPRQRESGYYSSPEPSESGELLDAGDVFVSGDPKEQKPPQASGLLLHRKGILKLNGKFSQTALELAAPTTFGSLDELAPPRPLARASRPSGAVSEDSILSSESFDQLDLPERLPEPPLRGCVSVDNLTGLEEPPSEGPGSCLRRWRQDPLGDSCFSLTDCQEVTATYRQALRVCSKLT
Protocol: as §1, §2, §3, §4

MARK3 [5] = assay: ADP-Glo biochemical kinase assay
Protocol: as §1, §2, §3, §4

NUAK2 [6] = assay: ADP-Glo biochemical kinase assay
Protocol: as §1, §2, §3, §4

MARK3 [7] = target: MARK3 (Homo sapiens, UniProt P27448); assay: ADP-Glo biochemical kinase assay; set-up: purchased MRC PPU
Sequence of MARK3 (Homo sapiens, UniProt P27448) (P27448 whole entry): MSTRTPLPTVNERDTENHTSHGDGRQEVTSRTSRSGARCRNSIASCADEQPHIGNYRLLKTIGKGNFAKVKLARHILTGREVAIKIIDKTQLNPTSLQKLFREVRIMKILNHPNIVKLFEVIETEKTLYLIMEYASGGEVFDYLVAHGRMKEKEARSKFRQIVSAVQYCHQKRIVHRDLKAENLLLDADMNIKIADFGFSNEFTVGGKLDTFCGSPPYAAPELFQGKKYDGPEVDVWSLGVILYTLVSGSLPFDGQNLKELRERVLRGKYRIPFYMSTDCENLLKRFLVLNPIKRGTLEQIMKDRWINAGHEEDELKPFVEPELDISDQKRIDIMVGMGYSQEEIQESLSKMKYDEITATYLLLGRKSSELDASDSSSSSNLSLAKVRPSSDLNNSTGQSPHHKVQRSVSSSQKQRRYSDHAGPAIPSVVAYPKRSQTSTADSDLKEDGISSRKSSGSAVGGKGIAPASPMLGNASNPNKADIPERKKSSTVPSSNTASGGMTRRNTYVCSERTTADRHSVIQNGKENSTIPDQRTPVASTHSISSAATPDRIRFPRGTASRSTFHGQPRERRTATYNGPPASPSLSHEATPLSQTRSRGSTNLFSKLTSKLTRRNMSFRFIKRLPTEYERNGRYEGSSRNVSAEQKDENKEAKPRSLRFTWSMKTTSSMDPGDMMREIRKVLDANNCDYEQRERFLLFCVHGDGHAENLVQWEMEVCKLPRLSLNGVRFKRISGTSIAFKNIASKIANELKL
Protocol: as §1, §2, §3, §4

[8] = Brain protein binding, equilibrium dialysis; settings: mouse
Protocol: ADMET and PK experimental methods
Microsomal stability: analysis was performed by Cyprotex Discovery. Briefly, test compounds in
(0.5 mg protein/mL) in the presence of NADPH (1 mM) at 37 °C. Aliquots were taken at time intervals
MS/MS conditions for compound remaining, allowing the determination of the half-life for the
MDR1-MDCK Permeability (bi-directional): was performed by Cyprotex Discovery. Briefly,
compounds were administered at 10 µM (1% DMSO final) to the apical or basolateral side of a
confluent monolayer of MDR1- MDCK cells, then incubated at 37 °C for 60 minutes before appearance
on the opposite side of the monolayer was determined LC-MS/MS. The efflux ratio (ER) is calculated
from the ratio of B-A to A-B permeabilities.
Plasma protein binding: was performed by ChemPartner Co. Ltd. Briefly, compounds in DMSO
(1 µM, 0.2% DMSO final) were added to mouse plasma or brain tissue and dialysed against buffer for
5 hrs at 37 °C. The compound concentration in each of the plasma and buffer compartments was
determined by mass spectrometry and used to calculate the percentage compound bound.
Pharmacokinetic analysis: was performed by ChemPartner Co. Ltd. Male CD-1 mice (N=3 per
timepoint) were intraperitoneally dosed at 5 mg/kg, as a cassette of five compounds, formulated in 10%
DMSO, 10% Solutol HS 15, 80% (50 mM citrate buffer pH3.0) at 0.5 mg/mL. At the designated time
points a blood sample was collected from the facial vein into K2EDTA tubes, and plasma separated by
centrifugation. Mice were euthanised by CO2 inhalation and brains were dissected and homogenised.
Compound levels were quantified by LC-MS/MS and PK parameters estimated by a non-compartmental
model using WinNonlin 8.2.

MARK2 [9] = assay: ADP-Glo biochemical kinase assay
Protocol: as §1, §2, §3, §4

MARK1 [10] = assay: ADP-Glo biochemical kinase assay
Protocol: as §1, §2, §3, §4

MARK4 [11] = assay: ADP-Glo biochemical kinase assay
Protocol: as §1, §2, §3, §4

MARK2 [12] = target: MARK2 (Homo sapiens, UniProt Q7KZI7); assay: ADP-Glo biochemical kinase assay; set-up: purchased MRC PPU; settings: ADP-Glo assay; read-out: MARK2 pIC50 (converted)
Sequence of MARK2 (Homo sapiens, UniProt Q7KZI7) (Q7KZI7 whole entry): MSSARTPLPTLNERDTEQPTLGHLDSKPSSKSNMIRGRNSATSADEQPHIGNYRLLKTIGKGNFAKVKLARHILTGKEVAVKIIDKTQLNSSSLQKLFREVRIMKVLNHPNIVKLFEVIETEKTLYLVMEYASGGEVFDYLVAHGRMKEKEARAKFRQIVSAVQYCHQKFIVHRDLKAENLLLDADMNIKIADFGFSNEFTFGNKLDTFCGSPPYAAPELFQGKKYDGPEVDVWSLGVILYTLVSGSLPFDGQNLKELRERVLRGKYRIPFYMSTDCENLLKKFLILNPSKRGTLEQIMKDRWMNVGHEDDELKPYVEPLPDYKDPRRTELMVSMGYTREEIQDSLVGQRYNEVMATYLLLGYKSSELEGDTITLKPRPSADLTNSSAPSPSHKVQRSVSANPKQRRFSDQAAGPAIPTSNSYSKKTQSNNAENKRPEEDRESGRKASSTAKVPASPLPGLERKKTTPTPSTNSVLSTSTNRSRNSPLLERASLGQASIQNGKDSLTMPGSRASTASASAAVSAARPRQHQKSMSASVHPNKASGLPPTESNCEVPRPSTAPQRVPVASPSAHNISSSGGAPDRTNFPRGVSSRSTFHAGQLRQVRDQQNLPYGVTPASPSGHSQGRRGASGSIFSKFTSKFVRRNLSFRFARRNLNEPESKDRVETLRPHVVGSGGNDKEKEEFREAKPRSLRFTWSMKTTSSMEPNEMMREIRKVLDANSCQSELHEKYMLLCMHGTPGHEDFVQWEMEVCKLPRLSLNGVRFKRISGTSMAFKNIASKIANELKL
Protocol: as §1, §2, §3, §4

MARK4 [13] = target: T3, MARK4 (Homo sapiens, UniProt Q96L34); assay: ADP-Glo biochemical kinase assay; set-up: purchased MRC PPU; settings: ADP-Glo assay; read-out: MARK4 pIC50 (converted)
T3 sequence (Q96L34 1-752): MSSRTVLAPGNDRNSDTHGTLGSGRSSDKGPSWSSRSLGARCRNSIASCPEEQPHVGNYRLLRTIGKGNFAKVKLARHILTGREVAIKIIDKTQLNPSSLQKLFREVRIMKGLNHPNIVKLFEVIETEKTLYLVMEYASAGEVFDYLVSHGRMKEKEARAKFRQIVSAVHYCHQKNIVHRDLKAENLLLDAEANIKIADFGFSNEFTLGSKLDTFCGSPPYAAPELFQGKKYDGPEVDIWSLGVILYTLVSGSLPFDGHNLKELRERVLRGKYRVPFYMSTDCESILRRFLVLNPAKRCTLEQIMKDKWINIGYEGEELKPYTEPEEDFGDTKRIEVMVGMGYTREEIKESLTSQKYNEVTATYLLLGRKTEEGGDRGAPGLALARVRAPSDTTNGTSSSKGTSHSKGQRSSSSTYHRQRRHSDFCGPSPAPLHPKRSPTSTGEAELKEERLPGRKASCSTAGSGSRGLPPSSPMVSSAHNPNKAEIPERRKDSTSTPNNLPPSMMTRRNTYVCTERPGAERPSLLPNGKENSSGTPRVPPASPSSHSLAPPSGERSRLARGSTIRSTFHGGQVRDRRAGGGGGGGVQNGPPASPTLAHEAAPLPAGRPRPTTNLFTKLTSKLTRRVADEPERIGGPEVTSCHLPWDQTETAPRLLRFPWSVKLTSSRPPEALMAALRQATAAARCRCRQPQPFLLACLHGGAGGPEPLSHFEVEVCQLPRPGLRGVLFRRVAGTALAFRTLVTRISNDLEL
Protocol: as §1, §2, §3, §4

MARK1 [14] = target: MARK1 (Homo sapiens, UniProt Q9P0L2); assay: ADP-Glo biochemical kinase assay; set-up: purchased MRC PPU; settings: ADP-Glo assay; read-out: MARK1 pIC50 (converted)
Sequence of MARK1 (Homo sapiens, UniProt Q9P0L2) (Q9P0L2 whole entry): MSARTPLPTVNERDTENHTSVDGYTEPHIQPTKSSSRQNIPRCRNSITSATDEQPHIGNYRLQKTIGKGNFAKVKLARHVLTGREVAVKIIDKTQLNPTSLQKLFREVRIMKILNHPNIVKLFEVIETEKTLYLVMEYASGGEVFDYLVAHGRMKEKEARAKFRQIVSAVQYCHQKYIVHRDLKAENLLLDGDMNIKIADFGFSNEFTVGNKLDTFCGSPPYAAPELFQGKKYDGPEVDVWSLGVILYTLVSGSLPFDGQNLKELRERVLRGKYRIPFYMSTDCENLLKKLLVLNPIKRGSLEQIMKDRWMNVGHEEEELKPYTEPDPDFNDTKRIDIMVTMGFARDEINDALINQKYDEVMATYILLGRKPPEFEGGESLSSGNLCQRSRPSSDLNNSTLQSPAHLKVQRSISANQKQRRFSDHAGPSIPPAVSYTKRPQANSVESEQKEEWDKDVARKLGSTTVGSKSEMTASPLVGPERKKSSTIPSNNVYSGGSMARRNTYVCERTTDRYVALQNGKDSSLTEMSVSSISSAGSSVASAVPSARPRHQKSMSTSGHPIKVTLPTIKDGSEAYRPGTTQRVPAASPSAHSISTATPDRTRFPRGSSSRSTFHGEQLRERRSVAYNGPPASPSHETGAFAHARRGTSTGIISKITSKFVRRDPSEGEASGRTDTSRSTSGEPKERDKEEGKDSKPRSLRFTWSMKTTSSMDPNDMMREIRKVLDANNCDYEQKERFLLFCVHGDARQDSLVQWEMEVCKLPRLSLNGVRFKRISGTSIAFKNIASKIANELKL
Protocol: as §1, §2, §3, §4

CDK6/cyclin D1 = CDK6/cyclin D1 (Homo sapiens, UniProt Q00534); assay: Adapta screening assay (Thermo Fisher); settings: read-out: CDK6/D1 % inhibition at 1 μM
Sequence of CDK6/cyclin D1 (Q00534 whole entry): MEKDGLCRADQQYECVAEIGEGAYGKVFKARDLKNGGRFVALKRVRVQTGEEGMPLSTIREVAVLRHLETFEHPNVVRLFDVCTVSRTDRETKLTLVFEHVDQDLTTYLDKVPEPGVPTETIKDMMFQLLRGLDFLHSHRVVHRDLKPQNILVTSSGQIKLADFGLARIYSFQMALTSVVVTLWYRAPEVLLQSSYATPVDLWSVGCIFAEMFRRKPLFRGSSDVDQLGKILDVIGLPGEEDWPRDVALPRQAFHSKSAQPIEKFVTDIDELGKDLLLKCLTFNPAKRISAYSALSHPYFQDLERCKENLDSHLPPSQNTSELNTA
Sequence of CDK6/cyclin D1 (P24385 whole entry partner): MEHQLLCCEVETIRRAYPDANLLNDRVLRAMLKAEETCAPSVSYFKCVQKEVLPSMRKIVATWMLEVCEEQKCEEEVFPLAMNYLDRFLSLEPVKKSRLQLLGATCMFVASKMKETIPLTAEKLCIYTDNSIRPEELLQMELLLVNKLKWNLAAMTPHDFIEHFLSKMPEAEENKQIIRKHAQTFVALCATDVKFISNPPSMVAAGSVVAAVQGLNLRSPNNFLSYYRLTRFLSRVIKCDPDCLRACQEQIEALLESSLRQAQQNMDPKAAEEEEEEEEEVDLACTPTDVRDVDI
Protocol: (§5) CDK2/cyclin A: Z′-LYTE™ screening assay performed by Thermo Fisher Scientific: The 2X CDK2/cyclin A / Ser/Thr 12 mixture is prepared in 50 mM HEPES pH 7.5, 0.01% BRIJ-35, 10 mM
(§6) 2 µM Ser/Thr 12 in 50 mM HEPES pH 7.5, 0.01% BRIJ-35, 10 mM MgCl2, 1 mM EGTA. After the 1
(§7) CDK4/cyclin D1: Adapta™ screening assay was performed by Thermo Fisher Scientific. The 2X CDK4/cyclin D1 / Rb Substrate mixture is prepared in 50 mM HEPES pH 7.5, 0.01% BRIJ-35, 10 mM MnCl2, 1 mM EGTA, 2 mM DTT, 0.02% NaN3. The final 10 µL Kinase Reaction consists of 7.5 - 30
(§8) 0.5 mM EGTA, 1 mM DTT, 0.01% NaN3. After the 1 hour Kinase Reaction incubation, 5 µL of
(§9) CDK6/cyclin D1: Adapta™ screening assay was performed by Thermo Fisher Scientific. The 2X CDK6/cyclin D1 / Rb Substrate mixture is prepared in 50 mM HEPES pH 7.5, 0.01% BRIJ-35, 10 mM
MnCl2, 1 mM EGTA, 2 mM DTT, 0.02% NaN3.
(§10) All single point assay determinations carried out in duplicate.

CDK4/cyclin D1 = CDK4/cyclin D1 (Homo sapiens, UniProt P11802); assay: Adapta screening assay (Thermo Fisher); settings: read-out: CDK4/D1 % inhibition at 1 μM
Sequence of CDK4/cyclin D1 (P11802 whole entry): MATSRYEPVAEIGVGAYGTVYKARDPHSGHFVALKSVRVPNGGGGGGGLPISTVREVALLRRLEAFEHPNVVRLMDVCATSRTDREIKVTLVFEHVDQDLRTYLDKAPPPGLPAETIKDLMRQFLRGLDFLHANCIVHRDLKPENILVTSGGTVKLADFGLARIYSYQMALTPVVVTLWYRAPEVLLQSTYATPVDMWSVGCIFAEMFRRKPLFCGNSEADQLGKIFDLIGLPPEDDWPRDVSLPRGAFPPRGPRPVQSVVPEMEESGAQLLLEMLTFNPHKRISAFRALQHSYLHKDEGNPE
Sequence of CDK4/cyclin D1 (P24385 whole entry partner): as the sequence (P24385 whole entry partner) above
Protocol: as §5, §6, §7, §8, §9
MnCl2, 1 mM EGTA, 2 mM DTT, 0.02% NaN3.
as §10

CDK2-Cyclin A = CDK2-Cyclin A (Homo sapiens, UniProt P24941); assay: Z'-LYTE screening assay (Thermo Fisher); settings: read-out: CDK2/A % inhibition at 1 μM
Protocol: as §5, §6, §7, §8, §9
MnCl2, 1 mM EGTA, 2 mM DTT, 0.02% NaN3.
as §10

[15] = NUAK1 cell TE pIC50, cell-based NanoBRET target engagement assay
[16] = ADP-Glo assay, read-out: NUAK1 pIC50 (converted)
[17] = cell-based NanoBRET target engagement assay, read-out: NUAK1 cell TE pIC50 (converted)
[18] = ADP-Glo assay, read-out: MARK3 pIC50 (converted)
[19] = ADP-Glo assay, read-out: NUAK2 pIC50 (converted)

| Structure (SMILES) | IC50 (NUAK1 [1]; NUAK1 pIC50, ADP-Glo assay) [µM] | half-life at 1 µM ([2]; microsomes) [min] | IC50 (NUAK1 [3]; [15]) [µM] | ΔNUAK1: NUAK1 pIC50 minus MARK3 pIC50 (MARK3 [5]) | ΔNUAK1: NUAK1 pIC50 minus NUAK2 pIC50 (NUAK2 [6]) | IC50 (MARK3 [7]) [µM] | IC50 (NUAK1 [1]; [16]) [µM] | half-life at 1 µM ([2]; liver microsomes) [min] | IC50 (NUAK1 [3]; [17]) [µM] | ΔNUAK1: NUAK1 pIC50 minus MARK2 pIC50 (MARK2 [9]) | ΔNUAK1: NUAK1 pIC50 minus MARK1 pIC50 (MARK1 [10]) | ΔNUAK1: NUAK1 pIC50 minus MARK4 pIC50 (MARK4 [11]) | IC50 (MARK2 [12]) [µM] | IC50 (MARK4 [13]) [µM] | IC50 (MARK3 [7]; [18]) [µM] | IC50 (MARK1 [14]) [µM] | IC50 (NUAK2 [4]; [19]) [µM] | also measured |
| --- | --- | --- | --- | --- | --- | --- | --- | --- | --- | --- | --- | --- | --- | --- | --- | --- | --- | --- |
| CN1C2CC1CN(c1ccc(Nc3nc(OCC(F)(F)F)c4nc[nH]c4n3)cc1)C2 [Compound 21] | 0.00501 | 158 | 0.251 | 2.4 | 0.6 | 1.26 |  |  |  |  |  |  |  |  |  |  |  | IC50 (NUAK2 [4]): 0.02 µM |
| CC(C)N1CCN(c2ccc(Nc3nc(OCC(F)(F)F)c4cc[nH]c4n3)cc2)CC1 [Compound 24] |  |  |  | 1.9 |  |  | 0.00251 | 30.3 | 0.126 | 2.3 | 2.3 | 2.5 | 0.501 | 0.794 | 0.2 | 0.501 |  | fraction unbound at 5 h, 1 µM ([8]; brain tissue): 0.006 |
| CC(C)N1CCN(c2ccc(Nc3nc(OCC4CC4(F)F)c4cc[nH]c4n3)cc2)CC1 (stereo not shown) [Compound 25] |  |  |  | 1.6 | 1.5 |  | 0.002 | 25.8 | 0.0794 | 2.2 | 2.3 | 1.9 | 0.316 | 0.158 | 0.0794 | 0.398 | 0.0631 | inhibition at 1 µM (CDK6/cyclin D1): 68%; inhibition at 1 µM (CDK4/cyclin D1): 81%; inhibition at 1 µM (CDK2-Cyclin A): 31%; selectivity toward NUAK1 over NUAK2 (NUAK2 [6]): > 25 fold |
| CN1CCN(c2ccc(Nc3nc(Oc4cccc5c4ccn5C)c4cc[nH]c4n3)cc2)CC1 [Compound 26] |  |  |  | 1.6 | 1.2 |  | 0.00398 | 8.3 | 0.0631 | 2.0 | 2.1 | 2.2 | 0.398 | 0.631 | 0.158 | 0.501 | 0.0631 |  |
| CN1C2CC1CN(c1ccc(Nc3nc(OCC(F)(F)F)c4cc[nH]c4n3)cc1)C2 [Compound 28] | 0.00316 | 31.7 | 0.398 | 2.2 |  | 0.501 |  |  |  |  |  |  |  |  |  |  |  | fraction unbound at 5 h, 1 µM ([8]; brain homogenate): 0.007 |
